Test results taken from US7816310B2, “Increased moisturization efficacy using hydroxyalkylurea and ammonium lactate” (Akzo Nobel N.V., priority 2003, dated 2010).

Tested on: volar forearm of panellists with dry skin
Test: Skin Moisturization (Hydration), Corneometer CM 825
Type: in vivo
Conditions: 15% active, baseline 46.75
Description: Skin Moisturization (Hydration). Aqueous solutions (along with formulated lotions) were applied to the volar forearm of panellists with dry skin. Solutions tested contained between 2.5 and 15% active levels of Hydroxyalkylurea and various moisturizing agents. The various individual moisturizing agents were also used in combination with Hydroxyalkylurea and the relative moisture contents in the skin were compared. Moisture levels were measured using a Corneometer® CM 825 (available from CK Industries) prior to and at various time intervals after application of forty microliters of each sample (Temperature ˜21° C., Relative Humidity ˜35%).

NC(=O)NCCO [HAU, N-2-hydroxyethylurea]
Relative Skin Moisture Content (5 min after application): 56.56
Relative Skin Moisture Content (30 min after application): 60.00
Relative Skin Moisture Content (1 hr after application): 62.95
Relative Skin Moisture Content (2 hr after application): 62.00
